This is an account of results in ChEMBL document CHEMBL3886786, “1,3 substituted azetidine PDE10 inhibitors” (2016).

The assay addresses cAMP and cAMP-inhibited cGMP 3',5'-cyclic phosphodiesterase 10A (Homo sapiens, UniProt Q9Y233). The experiment in a line: Fluorescence Polarization Assay: The fluorescence polarization assay for cyclic nucleotide phosphodiesterases was performed using an IMAP® FP kit supplied by Molecular Devices, Sunnyvale, Calif. (product # R8139). IMAP® technology has been applied previously to phosphodiesterase assays (Huang, W., et al., J. Biomol Screen, 2002, 7: 215). Assays were performed at room temperature in 384-well microtiter plates with an incubation volume of 20.2 μL. Solutions of test compounds were prepared in DMSO and serially diluted with DMSO to yield 8 μL of each of 10 solutions differing by 3-fold in concentration, at 32 serial dilutions per plate. 100% inhibition is determined using a known PDE10 inhibitor, which can be any compound that is present at 5,000 times its Ki value in the assay described as follows, such as papaverine (see Siuciak, et al. Neuropharmacology (2006) 51:386-396; Becker, et al. Behav Brain Res (2008) 186(2):155-60; Threlfell, et al., J Pharmacol Exp Ther (2009) 328(3):785-795), 2-{4-[pyridin-4-yl-1-(2,2,2-trifluoroethyl)-1H-pyrazol-3-yl]phenoxymethyl}quinoline succinic acid or 2-[4-(1-methyl-4-pyridin-4-yl-1H-pyrazol-3-yl)-phenoxymethyl]quinoline succinic acid (see Schmidt, et al. J Pharmacol Exp Ther (2008) 325:681-690; Threlfell, et al., J Pharmacol Exp Ther (2009) 328(3): 785-795). 0% of inhibition is determined by using DMSO (1% final concentrations). […].

Sequence of cAMP and cAMP-inhibited cGMP 3',5'-cyclic phosphodiesterase 10A (Q9Y233 whole entry): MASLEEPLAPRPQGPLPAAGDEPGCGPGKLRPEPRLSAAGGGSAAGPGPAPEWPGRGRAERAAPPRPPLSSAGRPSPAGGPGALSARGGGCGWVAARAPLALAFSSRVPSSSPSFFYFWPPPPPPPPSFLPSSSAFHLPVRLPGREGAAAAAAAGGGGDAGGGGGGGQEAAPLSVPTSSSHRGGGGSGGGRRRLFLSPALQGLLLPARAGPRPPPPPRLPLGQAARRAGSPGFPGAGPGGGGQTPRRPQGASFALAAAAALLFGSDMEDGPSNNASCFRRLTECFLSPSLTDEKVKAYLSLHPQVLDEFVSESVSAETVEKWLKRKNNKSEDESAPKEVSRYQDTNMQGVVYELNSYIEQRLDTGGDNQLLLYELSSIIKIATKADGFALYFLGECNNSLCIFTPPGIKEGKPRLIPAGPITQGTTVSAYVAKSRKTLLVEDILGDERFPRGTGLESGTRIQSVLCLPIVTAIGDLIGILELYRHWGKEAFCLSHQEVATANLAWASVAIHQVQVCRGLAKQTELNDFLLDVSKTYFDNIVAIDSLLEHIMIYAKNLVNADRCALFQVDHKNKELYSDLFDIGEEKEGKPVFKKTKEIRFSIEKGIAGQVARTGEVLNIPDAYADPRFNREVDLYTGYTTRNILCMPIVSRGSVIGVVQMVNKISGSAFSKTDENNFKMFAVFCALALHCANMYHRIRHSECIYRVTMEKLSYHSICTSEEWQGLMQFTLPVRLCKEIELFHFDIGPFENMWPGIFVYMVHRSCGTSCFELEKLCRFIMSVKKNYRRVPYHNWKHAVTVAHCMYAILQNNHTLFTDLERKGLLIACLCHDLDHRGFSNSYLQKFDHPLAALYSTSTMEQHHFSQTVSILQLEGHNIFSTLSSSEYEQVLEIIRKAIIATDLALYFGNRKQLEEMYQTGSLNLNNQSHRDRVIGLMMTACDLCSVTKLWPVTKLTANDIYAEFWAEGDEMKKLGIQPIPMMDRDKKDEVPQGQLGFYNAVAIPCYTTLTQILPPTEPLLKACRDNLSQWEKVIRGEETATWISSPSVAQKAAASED

For `Cc1nc(N2CC(c3nc4ccccc4n3C)C2)cc(-n2nc(C)nc2C2CCOCC2)n1`, the inhibitory constant (Ki) stood at 2.2 nM.
